ChEMBL document CHEMBL3046921, “Synthesis of 3,5-disubstituted isoxazolines as protein tyrosine phosphatase 1B inhibitors” (Med Chem Res, 2008)
pIC50, pKi: −log10 of the molar value.

Assays:
[1] = molecular target: T1, Tyrosine-protein phosphatase non-receptor type 1 (Homo sapiens) (UniProt P18031); test: (§1) Inhibition of PTP1B (unknown origin) using p-nitrophenylphosphate as substrate at 100 uM after 10 min
T1 sequence (whole entry): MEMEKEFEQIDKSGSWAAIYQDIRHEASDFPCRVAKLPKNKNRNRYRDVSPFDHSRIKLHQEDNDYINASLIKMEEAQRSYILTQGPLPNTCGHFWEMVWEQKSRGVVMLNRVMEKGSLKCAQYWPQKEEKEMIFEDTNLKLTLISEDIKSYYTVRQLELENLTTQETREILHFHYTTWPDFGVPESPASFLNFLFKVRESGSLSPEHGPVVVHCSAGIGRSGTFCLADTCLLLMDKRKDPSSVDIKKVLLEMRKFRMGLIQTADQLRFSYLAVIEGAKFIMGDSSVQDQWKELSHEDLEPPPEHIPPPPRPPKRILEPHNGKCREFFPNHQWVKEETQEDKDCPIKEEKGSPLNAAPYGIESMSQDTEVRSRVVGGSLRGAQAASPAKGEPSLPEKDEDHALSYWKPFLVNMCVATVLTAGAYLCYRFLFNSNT

[2] = molecular target: T2, Tyrosine-protein phosphatase non-receptor type 1 (Homo sapiens, UniProt P18031); test: Inhibition of PTP1B (unknown origin) using p-nitrophenylphosphate as substrate after 10 min
T2 sequence (P18031 whole entry): T1 sequence (whole entry)

Rattus norvegicus [3] = test: Antidiabetic activity in albino Rattus norvegicus Sprague-Dawley (rat) streptozotocin-induced diabetic model assessed as reduction of blood glucose level at 100 mg/kg, po after 5 hr; type: functional; design: scale not given: the % may be the effect or the level left
Rattus norvegicus [4] = test: Antidiabetic activity in albino Rattus norvegicus Sprague-Dawley (rat) streptozotocin-induced diabetic model assessed as reduction of blood glucose level at 100 mg/kg, po after 24 hr; type: functional; design: scale not given: the % may be the effect or the level left
[5] = molecular target: Tyrosine-protein phosphatase non-receptor type 1 (Homo sapiens) (UniProt P18031); test: as §1; remark: listed apart in the source

Row | inhibition [1] [%] | pIC50 [2] | pKi [2] | inhibition [5] [%] | Compound | Activity (Rattus norvegicus [3]) [%] | Activity (Rattus norvegicus [4]) [%]
1 | 11.5 | 3.56 | 3.82 | – | COc1ccc(C2=NOC(c3ccncc3)C2)c(OC)c1 (stereo unspecified) | – | –
2 | 65.8 | 4.17 | 4.32 | – | COc1ccc(C2CC(c3ccc(OC)cc3OC)=NO2)cc1 (stereo unspecified) | 2.56 | 12.2
3 | 57.7 | – | – | – | COc1ccc(C2CC(c3ccc4c(c3OC)C=CC(C)(C)O4)=NO2)cc1 (stereo unspecified) | – | –
4 | 88.5 | 4.16 | 4.32 | – | COc1ccc(C2=NOC(c3ccccc3)C2)c(OC)c1 (stereo unspecified) | 18 | 19.7
5 | 80.4 | 4.12 | – | – | COc1c(C2=NOC(c3ccccc3)C2)ccc2occc12 (stereo unspecified) | – | –
6 | 46.5 | 3.78 | 3.87 | – | COC(=O)C1C(c2ccc(OC)cc2OC)=NOC1c1ccccc1 (stereo unspecified) | 21.6 | 7.74
7 | 9.8 | 3.31 | 3.77 | – | COc1ccc(C2=NOC(c3ccccn3)C2)c(OC)c1 (stereo unspecified) | – | –
8 | 91.6 | – | – | – | CC(=O)Oc1ccc(C2=NOC(c3ccccc3)C2)c(OC(C)=O)c1 (stereo unspecified) | 23 | 15

More lines, now with the values behind:

Row | Compound | inhibition [1] [%] | pIC50 [2] | pKi [2] | inhibition [5] [%] | Activity (Rattus norvegicus [3]) [%] | Activity (Rattus norvegicus [4]) [%]
9 | Oc1ccc(C2=NOC(c3ccccc3)C2)c(O)c1 (stereo unspecified) | 29.5 | – | – | – | – | –
10 | COc1c(C2=NOC(c3ccccc3)C2)ccc2c1C=CC(C)(C)O2 (stereo unspecified) | 64.2 | – | – | – | – | –
11 | SODIUM HYDROXYTRIOXIDOVANADIUM | – | 4.06 | 4.17 | – | – | –
12 | SODIUM [sequence] | – | – | – | 56.2 | – | –
13 | CN(C)C(=N)NC(=N)N [METFORMIN] | – | – | – | – | 23.6 | 26.5
14 | COc1ccc(C2=NOC(n3ccnc3)C2)c(OC)c1 (stereo unspecified) | 79.8 | 4.06 | 4.20 | – | 22.3 | 15
15 | COc1ccc(C2=NOC(c3ccccc3)C2)c(O)c1 (stereo unspecified) | 47.1 | – | – | – | – | –
16 | COc1ccc(C2=NOC(c3ccccc3)C2)c(OC(C)=O)c1 (stereo unspecified) | 28.8 | – | – | – | 20.5 | 6.96
17 | COc1ccc(C2CC(c3ccc4occc4c3OC)=NO2)cc1 (stereo unspecified) | 79.6 | 4.09 | – | – | – | –
18 | COc1c(C2=NOC(c3ccccn3)C2)ccc2c1C=CC(C)(C)O2 (stereo unspecified) | 62.4 | – | – | – | – | –
